Patent publication US5041567A, “Antibacterial monic acid derivatives” (Beecham Group plc, priority 1982, dated 1991)
In brackets after ≈: the same amount, converted by molar mass. Like-named read-outs stand apart in the source and are kept apart here.

Experiments:
M. bovis NCTC 10131 = experiment: microbe, parasite or virus in culture; format: cell-based; conditions: NCTC10131, 144 h
[1] = system: Neisseria catarrhalis 1502; experiment: MIC against human bacteria in vitro; format: cell-based
[2] = system: Ps. aeruginosa NCTC 10662; experiment: MIC against human bacteria in vitro; format: cell-based; conditions: Pseudomonas aeruginosa
M. suipneumoniae Str. 11 = experiment: MIC against mycoplasma in vitro; format: cell-based; conditions: Mesomycoplasma hyopneumoniae
E. coli E1 = experiment: MIC against veterinary bacteria in vitro; conditions: Escherichia coli, E1, 18 h
Method: (§1) The activity of the compounds of the Examples against various veterinarily important bacteria, was assayed in vitro using two-fold serial dilutions in Diagnostic Sensitivity Test Agar inoculated with 10^4 organisms.

E. coli NCTC 10418 [3] = experiment: MIC against veterinary bacteria in vitro; conditions: Escherichia coli, NCTC10418, 18 h
Method: as §1

Strep. uberis SPU1 = experiment: MIC against veterinary bacteria in vitro; conditions: Streptococcus uberis, SPU1, 18 h
Method: as §1

Strep. faecalis I = experiment: MIC against human bacteria in vitro; format: cell-based; conditions: Enterococcus faecalis
S. typhimurium S18 = experiment: MIC against veterinary bacteria in vitro; conditions: Salmonella enterica, TYPHIMURIUM, 18 h
Method: as §1

Strep. spp. 64/848-C = experiment: MIC against human bacteria in vitro; format: cell-based
[4] = system: Haemophilus influenzae Q1; experiment: MIC against human bacteria in vitro; format: cell-based; conditions: Haemophilus influenzae Q1; 5% chocolated horse blood agar, 18 hours; read-out: MIC
M. suipneumoniae TAM 6N = experiment: MIC against mycoplasma in vitro; format: cell-based; conditions: Mesomycoplasma hyopneumoniae, TAM6N, 144 h
P. mirabilis 889 = experiment: MIC against human bacteria in vitro; format: cell-based
K. aerogenes A = experiment: MIC against human bacteria in vitro; format: cell-based; conditions: Klebsiella aerogenes
Strep. dysgalactiae SPD1 = experiment: MIC against veterinary bacteria in vitro; conditions: Streptococcus dysgalactiae, SPD1, 18 h
Method: as §1

M. suipneumoniae NB12 = experiment: MIC against mycoplasma in vitro; format: cell-based; conditions: Mesomycoplasma hyopneumoniae
M. gallisepticum S6 = experiment: MIC against mycoplasma in vitro; format: cell-based; conditions: Mycoplasmoides gallisepticum, 144 h; M. gallisepticum S6; 6 days, 37° C.; read-out: MIC
M. suipneumoniae MS 16 = experiment: MIC against mycoplasma in vitro; format: cell-based; conditions: Mesomycoplasma hyopneumoniae, MS16, 144 h
Bord. bronchiseptica B09 = experiment: MIC against veterinary bacteria in vitro; conditions: Bordetella bronchiseptica, B09, 18 h
Method: as §1

E. coli NCTC 10418 [5] = experiment: MIC against human bacteria in vitro; format: cell-based; conditions: Escherichia coli
[6] = system: Strep. pyogenes R80/421-A; experiment: MIC against human bacteria in vitro; format: cell-based; conditions: Streptococcus pyogenes
[7] = system: Staph. aureus 152 (pen. sens); experiment: MIC against veterinary bacteria in vitro; conditions: Staphylococcus aureus, 18 h
Method: as §1

[8] = system: M. bovigenitalium ATCC 14173; experiment: MIC against mycoplasma in vitro; format: cell-based; conditions: 144 h
[9] = Neisseria catarrhalis 1502, 5% chocolated horse blood agar, 18 hours, read-out: MIC
[10] = NCTC10662, Ps. aeruginosa NCTC 10662, 5% chocolated horse blood agar, 18 hours, read-out: MIC
[11] = Strep. faecalis I, 5% chocolated horse blood agar, 18 hours, read-out: MIC
[12] = Strep. spp. 64/848-C, 5% chocolated horse blood agar, 18 hours, read-out: MIC
[13] = M. suipneumoniae TAM 6N, 6 days, 37° C., read-out: MIC
[14] = Proteus mirabilis, P. mirabilis 889, 5% chocolated horse blood agar, 18 hours, read-out: MIC
[15] = K. aerogenes A, 5% chocolated horse blood agar, 18 hours, read-out: MIC
[16] = 144 h, M. suipneumoniae NB12, Friis broth, 0.9% agarose, 6 days, 37° C., read-out: MIC
[17] = NCTC10418, E. coli NCTC 10418, agar with 5% chocolated horse blood, 18 hours, 37° C., read-out: MIC
[18] = Strep. pyogenes R80/421-A, 5% chocolated horse blood agar, 18 hours, read-out: MIC
[19] = 144 h, M. suipneumoniae Str. 11, 6 days, 37° C., read-out: MIC
[20] = M. bovigenitalium ATCC 14173, 6 days, 37° C., read-out: MIC
[21] = M. suipneumoniae MS 16, 6 days, 37° C., read-out: MIC

| SMILES | MIC (M. bovis NCTC 10131) [µg/mL] | MIC [1, 9] [µg/mL] | MIC [2, 10] [µg/mL] | MIC (M. suipneumoniae Str. 11; STR.11, 144 h) [µg/mL] | MIC (E. coli E1) [µg/mL] | MIC (E. coli NCTC 10418 [3]) [µg/mL] | MIC (Strep. uberis SPU1) [µg/mL] | MIC (Strep. faecalis I; [11]) [µg/mL] | MIC (S. typhimurium S18) [µg/mL] | MIC (Strep. spp. 64/848-C; [12]) [µg/mL] | MIC [4] [µg/mL] | MIC (M. suipneumoniae TAM 6N; [13]) [µg/mL] | MIC (K. aerogenes A; [15]) [µg/mL] | MIC (Strep. dysgalactiae SPD1) [µg/mL] | MIC (M. suipneumoniae NB12; [16]) [µg/mL] | MIC (M. gallisepticum S6) [µg/mL] | MIC (Bord. bronchiseptica B09) [µg/mL] | MIC (E. coli NCTC 10418 [5]; [17]) [µg/mL] | MIC [6, 18] [µg/mL] | MIC [7] [µg/mL] | further results |
| --- | --- | --- | --- | --- | --- | --- | --- | --- | --- | --- | --- | --- | --- | --- | --- | --- | --- | --- | --- | --- | --- |
| C/C(=C\c1ncc(-c2ccccc2)o1)C[C@@H]1OC[C@H](C[C@@H]2O[C@H]2[C@@H](C)[C@H](C)O)[C@@H](O)[C@H]1O [Example 1, 2-(1-normon-2-yl)-5-phenyloxazole A] | ≤ 0.01 | 10 (≈ 22.5 µM) | > 100 | 0.5 (≈ 1.13 µM) | > 80 | > 80 | 0.625 (≈ 1.41 µM) | ≥ 100 | > 80 | 2.5 (≈ 5.64 µM) | 1 (≈ 2.25 µM) | 1 (≈ 2.25 µM) | > 100 | 0.625 (≈ 1.41 µM) | 1 (≈ 2.25 µM) | 2.5 (≈ 5.64 µM) | 20 (≈ 45.1 µM) | > 100 | 1 (≈ 2.25 µM) | 1.25 (≈ 2.82 µM) | MIC (P. mirabilis 889; [14]): > 100 µg/mL; MIC (M. suipneumoniae MS 16): 0.5 µg/mL (≈ 1.13 µM) |
| C/C(=C/c1ncc(-c2ccccc2)o1)C[C@@H]1OC[C@H](C[C@@H]2O[C@H]2[C@@H](C)[C@H](C)O)[C@@H](O)[C@H]1O [Example 2, 2-{3-[5-(2,3-epoxy-5-hydroxy-4-methylhexyl)-3,4-dihydroxytetrahydropyran-2-yl]-2-methylprop-1(Z)-enyl}-5-phenyloxazole] | 0.25 (≈ 0.564 µM) | – | – | – | > 80 | > 80 | 5 (≈ 11.3 µM) | – | > 80 | – | 12.5 (≈ 28.2 µM) | > 10 | – | 10 (≈ 22.5 µM) | > 10 | > 10 | > 80 | – | – | 20 (≈ 45.1 µM) | MIC ([1]; Neisseria, 1502, 18 h): > 50 µg/mL; MIC ([2]; NCTC10662, 18 h): > 50 µg/mL; MIC (M. suipneumoniae Str. 11; [19]): 10 µg/mL (≈ 22.5 µM); MIC (Strep. faecalis I; 18 h): > 50 µg/mL; MIC [8, 20]: 0.5 µg/mL (≈ 1.13 µM); MIC (Strep. spp. 64/848-C; 18 h): > 50 µg/mL; MIC (P. mirabilis 889; Proteus mirabilis, 889, 18 h): > 50 µg/mL; MIC (K. aerogenes A; 18 h): > 50 µg/mL; MIC (M. suipneumoniae MS 16; [21]): 5 µg/mL (≈ 11.3 µM); MIC (E. coli NCTC 10418 [5]; NCTC10418, 18 h): > 50 µg/mL; MIC ([6]; R80/421A, 18 h): > 50 µg/mL |
| C/C(=C\c1ncc(-c2ccc([N+](=O)[O-])cc2)o1)C[C@@H]1OC[C@H](C[C@@H]2O[C@H]2[C@@H](C)[C@H](C)O)[C@@H](O)[C@H]1O [Example 3, 5-p-nitro-phenyl-2-(1-normon-2-yl)-oxazole A] | 0.025 (≈ 0.0512 µM) | 0.5 (≈ 1.02 µM) | > 100 | – | > 80 | > 80 | 0.039 (≈ 0.0798 µM) | 50 (≈ 102 µM) | > 80 | 0.5 (≈ 1.02 µM) | 0.1 (≈ 0.205 µM) | 0.25 (≈ 0.512 µM) | 100 (≈ 205 µM) | 0.312 (≈ 0.639 µM) | 0.1 (≈ 0.205 µM) | 0.5 (≈ 1.02 µM) | 5 (≈ 10.2 µM) | > 100 | 0.5 (≈ 1.02 µM) | 0.312 (≈ 0.639 µM) | MIC (M. suipneumoniae Str. 11; [19]): 0.1 µg/mL (≈ 0.205 µM); MIC [8, 20]: 0.05 µg/mL (≈ 0.102 µM); MIC (P. mirabilis 889; Proteus mirabilis, 889, 18 h): 50 µg/mL (≈ 102 µM); MIC (M. suipneumoniae MS 16; [21]): 0.05 µg/mL (≈ 0.102 µM) |
| COc1ccc(-c2cnc(/C=C(\C)C[C@@H]3OC[C@H](C[C@@H]4O[C@H]4[C@@H](C)[C@H](C)O)[C@@H](O)[C@H]3O)o2)cc1 [Example 4, 5-p-methoxyphenyl-2-(1-normon-2-yl)oxazole A] | 0.025 (≈ 0.0528 µM) | 10 (≈ 21.1 µM) | > 100 | 0.5 (≈ 1.06 µM) | > 80 | > 80 | 0.312 (≈ 0.659 µM) | > 100 | > 80 | 5 (≈ 10.6 µM) | 2.5 (≈ 5.28 µM) | – | > 100 | 1.25 (≈ 2.64 µM) | – | 2.5 (≈ 5.28 µM) | 20 (≈ 42.2 µM) | > 100 | 5 (≈ 10.6 µM) | 5 (≈ 10.6 µM) | MIC [8]: 0.05 µg/mL (≈ 0.106 µM); MIC (M. suipneumoniae TAM 6N): 1 µg/mL (≈ 2.11 µM); MIC (P. mirabilis 889; [14]): > 100 µg/mL; MIC (M. suipneumoniae NB12; NB12, 144 h): 0.5 µg/mL (≈ 1.06 µM); MIC (M. suipneumoniae MS 16): 0.5 µg/mL (≈ 1.06 µM) |
